Experiments:
Type in all cases: functional, Homo sapiens
Conditions in all cases: Homo sapiens, Concentration 10 uM; read-out: Cell Viability
Colon cancer organoid [1] = test: Targeting of F14 CAF-induced therapy resistance in O23 CRC organoid-stroma co-culture. Cell viability is reported with SN-38.
Colon cancer organoid [2] = test: Targeting of F14 CAF-induced therapy resistance in O14 CRC organoid-stroma co-culture. Cell viability is reported with Gefitinib.
Colon cancer organoid [3] = test: Targeting of F14 CAF-induced therapy resistance in O23 CRC organoid-stroma co-culture. Cell viability is reported without Gefitinib.
Colon cancer organoid [4] = test: Targeting of F14 CAF-induced therapy resistance in O23 CRC organoid-stroma co-culture. Cell viability is reported with Gefitinib.
Colon cancer organoid [5] = test: Targeting of F14 CAF-induced therapy resistance in O14 CRC organoid-stroma co-culture. Cell viability is reported without Gefitinib.

| Compound | viability at 10 µM (Colon cancer organoid [1]) | viability at 10 µM (Colon cancer organoid [2]) | viability at 10 µM (Colon cancer organoid [3]) | viability at 10 µM (Colon cancer organoid [4]) | viability at 10 µM (Colon cancer organoid [5]) |
| --- | --- | --- | --- | --- | --- |
| c1ccc(N2CCN(Cc3nc4ccccc4[nH]3)CC2)nc1 | 106% | 57.8% | 163% | 66.8% | 134% |
| O=C(Nc1cccnn1)N1CCC(=Cc2cccc(Oc3ccc(C(F)(F)F)cn3)c2)CC1 | 105% | 37.7% | 114% | 54.6% | 94% |
| Cc1sc2c(c1C)C(c1ccc(Cl)cc1)=N[C@@H](CC(=O)OC(C)(C)C)c1nnc(C)n1-2 | 53.4% | 6.17% | 65.2% | 35.6% | 25.8% |
| COc1cc2c(cc1-c1c(C)noc1C)ncc1[nH]c(=O)n([C@H](C)c3ccccn3)c12 | 91.5% | 9.93% | 143% | 78.1% | 30.2% |
| COc1ccc(Cn2ccc3ccc(C(=O)NO)cc32)cc1 | 94.6% | 52.8% | 126% | 89.4% | 75.4% |
| CCCc1cc(C)[nH]c(=O)c1CNC(=O)c1cc(-c2ccnc(N3CCN(C)CC3)c2)cc2c1cnn2C(C)C | 94.5% | 63.9% | 119% | 74.3% | 73% |
| O=C(c1ccc(C(=O)N2CCC(N3CCCC3)CC2)c(Nc2ccccc2)c1)N1CCC(N2CCCC2)CC1 | 67.2% | 47.7% | 122% | 57.4% | 121% |
| COc1cc2c(NC3CCN(C(C)C)CC3)nc(N3CCC(F)(F)CC3)nc2cc1OCCCN1CCCC1 | 91.7% | 56.9% | 107% | 62.4% | 71.2% |
| CC(C)N(CCCNC(=O)Nc1ccc(C(C)(C)C)cc1)C[C@H]1O[C@@H](n2cc(Br)c3c(N)ncnc32)[C@H](O)[C@@H]1O | 19.8% | 45.4% | 41.3% | 34% | 69.6% |
| COc1cc2c(cc1OCCCN1CCCC1)N=C(N)C21CCC1 | 76.1% | 46.9% | 122% | 55.4% | 82.9% |
| CCOC(=O)CCNc1cc(N2CCc3ccccc3CC2)nc(-c2ccccn2)n1 | 121% | 59.5% | 155% | 59.2% | 93.3% |
| CCCc1cc(C)[nH]c(=O)c1CNC(=O)c1cc(-c2ccc(N3CCN(C(C)C)CC3)nc2)cc2c1cnn2C(C)C | 102% | 77.8% | 152% | 68.8% | 95.6% |
| CCCOc1ccn2c(C(C)=O)cc(-c3ccccc3S(C)(=O)=O)c2c1 | 98.8% | 59.1% | 113% | 65.2% | 111% |
| CCn1cc(-c2cccc(C(F)(F)F)c2)c2sc(C(=N)NC3CCS(=O)(=O)CC3)cc2c1=O | 84.2% | 66.7% | 144% | 68.8% | 132% |
| CCCOc1ccn2c(C(C)=O)cc(-c3cccc(OC)c3)c2c1 | 92.8% | 64.8% | 112% | 74.1% | 113% |
| Clc1cccc(-c2nnnn2Cc2cccnc2)c1Cl | 77.1% | 60.2% | 106% | 47.8% | 127% |
| COc1cc(-c2cn(C)c(=O)c3cnccc23)c(OC)cc1CN(C)C | 44.2% | 53% | 55.4% | 31.8% | 95.6% |
| CC(C)Oc1ccc(-c2c[nH]cc2CN(C)CCN)cc1 | 77% | 31.6% | 132% | 47.4% | 25.7% |
| CNCCN1CCC(OCc2ccccc2)CC1 | 69.2% | 43.9% | 139% | 59.5% | 42.5% |
| CC(=O)c1cc(-c2cc(C(=O)NC3CC3)ccc2C)c2ncccn12 | 91.2% | 65.1% | 108% | 71.5% | 83.8% |
| CN1C[C@H](Nc2cnn(C)c(=O)c2Br)C[C@H](c2ccccc2)C1 | 66.4% | 64.7% | 143% | 68.1% | 84.6% |
